Where “and” joins values, the source holds several entries; their conditions need not be identical. Identical values can stand only once. Like-named read-outs stand apart in the source and are kept apart here.

One data set concerns viral replication. The note with it: background; cited from earlier work.
For data set [1] the following is noted: cited from earlier work.
A short description of data set [2]: Reverse phase HPLC retention time comparison (lipophilicity). It is filed as physicochemical. To be noted: measure of lipophilicity. An excerpt: A series of compounds were produced in accord with the method of Example 1 with various substitutions of 2' deoxycytidine at the N^4 position of the dialkylaminomethylene side chain.
Because of economic considerations 2'-deoxycytidine, was used as the parent nucleoside for comparison purposes in this study.

The nature of data set [3]: Rate of hydrolysis in phosphate buffer by UV spectroscopy and HPLC. It is filed as physicochemical. To be noted: 10 mM K-phosphate buffer, pH 7.4, read-out: half-life (t1/2) of hydrolysis (converted). How it is done:
The rates of hydrolysis of the different derivatives appear to depend greatly on the structure of the substituent introduced at the exocyclic NH2 group. For example, the half-life (t1/2) of N^4 -dimethylaminomethylene […] (compound 3 in Table 1) is 5 hours at 37° in 10 mM K-phosphate buffer at pH 7.4, as determined by UV spectroscopy and HPLC analysis. Under the same conditions, N^4 -diisopropylamino-methylene-2'-deoxycytidine (compound 7 in Table 1) has a t1/2 =3 days. Thus, there is an order of magnitude difference in the rate of hydrolysis of these two side chains. The variations in the susceptibility to hydrolysis provide another parameter for the optimization of the pharmacokinetic profile.

Data set [4] deals with human immunodeficiency virus (HIV-1, strain LAV). Briefly: NCI in vitro anti-HIV drug screen, antiviral activity. It is filed as cell-based. To be noted: for activity against human immunodeficiency virus: HIV-1, strain LAV, NCI In-Vitro Testing Program. The method, then: (§1) The protocol used in NCI's Developmental Therapeutics Program AIDS antiviral drug screening program involves plating of susceptible human "host" cells with and without virus in microculture plates, adding various concentrations of test material, incubating the plates for seven days (during which time infected, non-drug treated control cells are largely or totally destroyed by the virus), and then determining the number of remaining viable cells using a calorimetric endpoint. The dose dependent antiviral activity and cytotoxicity were determined and plotted on a graph illustrated as FIG. 1.
(§2) Two parameters are extracted from the curves illustrated in FIG. 1: the EC50, representing the concentration of drug that results in a 50% reduction of the viral cytopathic effect; and the IC50, representing the concentration of drug resulting in 50% cytotoxicity (growth inhibition derived from the normal, uninfected cultures). An in-vitro therapeutic index (TI) may be calculated as the ratio (IC50 /EC50)if both values are obtained.

In a further data set the test system is HIV. As to the kind of experiment: NCI in vitro anti-HIV drug screen, protection of CEM cells against HIV. The format is cell-based. The note with it: Human immunodeficiency virus 1, CCRF-CEM, 168 h; CEM cell line; read-out: concentration giving complete protection against HIV. How it is done: as §1, §2
Data set [5] in a line: NCI in vitro anti-HIV drug screen, cytotoxicity, CEM cells. To be noted: human, cem cells, CEM, read-out: IC50 (cytotoxicity). It is filed as cell-based, human. How it is done: as §1, §2
The next data set deals with CEM. Described as above. To be noted: CEM cell line, 8 micromolar. The format is cell-based, human. How it is done: as §1, §2
A short description of data set [6]: NCI in vitro anti-HIV drug screen, cytotoxicity, ATH8 cells. The format is cell-based. To be noted: human, ATH8, test of 9-08-87, uninfected cultures, seven days, read-out: IC50 (cytotoxicity). The method, then:
as §1, §2

Data set [7] can be described thus: NCI in vitro anti-HIV drug screen, cytotoxicity, C3-44 cells. The format is cell-based. The note with it: human, C3-44, tests of 3-15-88 and 3-16-88, uninfected cultures, seven days, read-out: IC50 (cytotoxicity). The method, then:
as §1, §2

The nature of data set [8]: NCI in vitro anti-HIV drug screen, cytotoxicity, LDV-7 cells. The format is cell-based. The note with it: human, LDV-7, tests of 3-15-88, 3-16-88, 3-25-88, uninfected cultures, seven days, read-out: IC50 (cytotoxicity). How it is done:
as §1, §2

Data set [9] is described as follows: NCI in vitro anti-HIV drug screen, cytotoxicity, MT-2 cells. The note with it: human, MT-2, tests of 1-29-88 and 3-25-88, uninfected cultures, seven days, read-out: IC50 (cytotoxicity). The format is cell-based. The method, then:
as §1, §2

The nature of data set [10]: NCI in vitro anti-HIV drug screen, cytotoxicity, five different cell lines. The format is cell-based, human. The note with it: human; all five different cell lines; IC50 could not be reached up to highest concentration employed; read-out: IC50 (50% cytotoxicity). The method, then:
as §1, §2

For data set [11], the system named is five different cell lines. Described as above. It is filed as cell-based, human. To be noted: all five different cell lines, up to highest concentration employed. The method, then:
as §1, §2

A further data set concerns viral p24 antigen. Briefly: Viral p24 antigen by enzyme-linked immunosorbent assay in CEM cells. The format is cell-based, HIV. The note with it: FIG. 2.

`Nc1ccn([C@H]2CC[C@@H](CO)O2)c(=O)n1` [ddC, 2', 3'-dideoxycytidine]: the “inhibition of viral replication” value with viral replication is given as “effective in inhibiting viral replication”. The dose limiting toxicity result in data set [1] (Phase I and II trials) is recorded as “peripheral neuropathy”. Besides, in [1] (human, in vivo), the bone marrow toxicity result was “much less bone marrow suppression”.

For the compound `CCN(C=Nc1ccn([C@H]2C[C@H](O)[C@@H](CO)O2)c(=O)n1)CC` [Compound 5, N^4 -Diethylaminomethylene-2'-deoxycytidine], in data set [2], the “RETENTION TIME” value was 6.44 min.

As to `O=c1nc(N=CN2CCCCC2)ccn1[C@H]1C[C@H](O)[C@@H](CO)O1` [Compound 6, N^4 -Piperidinomethylene-2' deoxycytidine], the “RETENTION TIME” value in data set [2] turned out to be 7.79 min.

Turning to `CC1CCCC(C)N1C=Nc1ccn([C@H]2C[C@H](O)[C@@H](CO)O2)c(=O)n1` (some centres unmarked) [Compound 8, N^4-2,6-Dimethylpiperidino-methylene-2'-deoxycytidine], the “RETENTION TIME” value in [2] is listed as 21.81 min.

Consider `O=c1nc(N=CN2CCCC2)ccn1[C@H]1C[C@H](O)[C@@H](CO)O1` [Compound 4, N^4 -Pyrrolidinomethylene-2'-deoxycytidine], for which, in [2], the “RETENTION TIME” value is on record as 5.16 min.

With `O=c1nc(N=CN2CCOCC2)ccn1[C@H]1C[C@H](O)[C@@H](CO)O1` [Compound 2, N^4 -Morpholinomethylene-2'-deoxycytidine], the “RETENTION TIME” value in data set [2] came to 3.07 min.

As to `CC(C)N(C=Nc1ccn([C@H]2C[C@H](O)[C@@H](CO)O2)c(=O)n1)C(C)C` [Compound 7, N^4 -Diisopropylamino-methylene-2'-deoxycytidine], the half-life in data set [3] (same conditions: 37°) was 72 h.

As for `Nc1ccn([C@H]2C[C@H](O)[C@@H](CO)O2)c(=O)n1` [Compound 1, 2'-Deoxycytidine, reference compound], the “RETENTION TIME” value in data set [2] was 2.13 min.

As to `CCCCN(C=Nc1ccn([C@H]2C[C@H](O)[C@@H](CO)O2)c(=O)n1)CCCC` [Compound 9, N^4 -Di-n-butylamino-methylene-2'-dioxycytidine], in data set [2], the “RETENTION TIME” value is listed as 125 min.

As to `CN(C)C=Nc1ccn([C@H]2C[C@H](F)[C@@H](CO)O2)c(=O)n1` [DDFC, N^4-dimethylaminomethylene-2', 3'-dideoxy-3'-fluorocytidine], the “antiviral activity in several cell lines” value in [4] (FIG. 1, several cell lines) is “significant antiviral activity”. In addition, in [4], the “activity against human immunodeficiency virus” value is reported as “Significant activity”. Also, the EC100 in the data set on HIV was 8 µM. The CC50 at 168 h in data set [5] (test of 1-23-88, highest concentration tested) is > 200 nM and > 0.055 µg/mL; in [5] (tests of 1-13-88, 3-15-88, 3-25-88, 3-16-88, uninfected cultures, seven days) it was > 200 µM and > 56 µg/mL; in [6], > 200 µM and > 56 µg/mL; in data set [7], > 200 µM and > 56 µg/mL; in data set [8] it was > 200 µM and > 56 µg/mL; in [9], > 200 µM and > 56 µg/mL. The CC50 at 168 h in [10] is above 200 µM. Besides, the “cytotoxicity at the concentration of complete protection” value in the data set on CEM is recorded as “without any cytotoxicity”. For the same compound, in data set [11], the cytotoxicity observed result is on record as “uniformly very little cytotoxicity”. Also, the “correlation of protection against cytopathic effect of HIV with p24 antigen” value with viral p24 antigen is on record as “correlated with the decrease in the presence of viral p24 antigen”.

For the compound `Nc1ncnc2c1ncn2[C@H]1CC[C@@H](CO)O1` [2', 3'-dideoxyadenosine], the “inhibition of viral replication” value in the data set on viral replication is “effective in inhibiting viral replication”.

Regarding `CN(C)C=Nc1ccn([C@H]2C[C@H](O)[C@@H](CO)O2)c(=O)n1` [Compound 3, N^4-dimethylaminomethylene-2'-deoxycytidine], in [2], the “RETENTION TIME” value was determined as 3.26 min. In addition, in data set [3] (37°), the half-life is 5 h.

For the compound `Cc1cn([C@H]2C[C@H](N=[N+]=[N-])[C@@H](CO)O2)c(=O)[nH]c1=O` [AZT], the half-life entry in data set [1] (human, in vivo) is reported as “short half-life”. Also, the therapeutic benefit result in data set [1] (patients with AIDS or AIDS related complex (ARC)) is recorded as “considerable therapeutic benefit”. For the same compound, in data set [1] (patients, ddC compared to AZT, Phase I and II trials), the bone marrow toxicity result is “severe bone marrow toxicity”.

Consider `CN(C)C=Nc1ccn([C@H]2CC[C@@H](CO)O2)c(=O)n1` [DAM-ddC, N^4-dimethylaminomethylene-2', 3'-dideoxycytidine], for which, in data set [4], the “activity against human immunodeficiency virus” value is on record as “Significant activity”. Besides, the antiviral activity result in [4] (anti-HIV drug screen, FIG. 3) was “significant antiviral activity”.

The values above are taken from patent US5886162A, “Lipophilic diakylaminomethylene prodrug derivatives for the inhibition of replication of viruses” (Research Foundation of State University of New York, priority 1991, dated 1999).
